Data set [1] relates to HIV-1 NL4-3 in CD4+ T cells. As for the experimental part:
Target CD4^+ T cells (1×10^6) were treated for 16 h with H2O2 (30 μM) to induce surface expression of DCIR. FIG. 17A: Cells were next exposed to NL4-3 (100 ng of p24) for 1 h at 37° C., extensively washed to remove unabsorbed virons before assessing the p24 content. FIG. 17B: Cells were first incubated with NL4-3 (100 ng of p24) for 2 h at 37° C., washed extensively to remove input virus and cultured in complete culture RPMI-1640 medium supplemented with rhIL-2 for the indicated number of days. Cell-free supernatants were collected and assayed for the p24 content. FIG. 17C: Cells were exposed to NL4-3 (100 ng of p24) for 2 h at 37° C., next washed extensively to remove input virus, and finally co-cultured with autologous CD4^+ T cells in complete culture RPMI-1640 medium supplemented with rhIL-2 for the indicated number of days. Cell-free supernatants were collected and assayed for the p24 content. Virus production at day 2 is depicted in the small inserts (FIGS. 17B and C). FIG. 17D: Cells were exposed to NL4-3 (100 ng of p24) for 2 h at 37° C., washed extensively to remove input virus, and maintained in complete culture medium supplemented with rhIL-2 for 3 days. Next, DCIR-negative and -positive cells (used as transmitter cells) were isolated with magnetic beads and co-cultured with uninfected CD4^+ T cells (used as recipient cells). […]

Data set [2] deals with DC-SIGN. The note with it: induction of apoptosis by H2O2; data not shown.
Data set [3] concerns DCIR expression in CD4+ T cells. Nature of the data set: DCIR expression in CD4+ T cells after H2O2 or other apoptosis inducers (flow cytometry). The class given is cell-based, human. As for the experimental part: Next, DCIR expression was assessed by flow cytometry. Data shown represent the ratio of DCIR expression over basal expression. The ratio is calculated from the means±SD of triplicate samples from three independent experiments. […] FIG. 16A: […] Expression of DCIR is shown as a dotted line, whereas the continuous line represents staining obtained with an isotype-matched irrelevant control Ab. Data shown correspond to a single experiment representative of 3 independent experiments. FIG. 16B: […] Thereafter, DCIR surface expression and caspase activation were monitored by flow cytometric analysis using a double-staining method consisting of FITC-VAD-FMK followed by the R-PE-conjugated anti-DCIR. Data shown correspond to a single experiment representative of 4 independent experiments. Cell surface expression of DCIR was monitored by flow cytometric analysis (Epics ELITE ESP, Coulter Electronics, Burlington, Canada). […] After washing, the cells were incubated with PE-labeled anti-DCIR (0.25 μg) for 45 min at 4° C. and then washed twice with PBS and 0.5% BSA. Non-specific staining was determined by using an isotype-matched irrelevant control antibody. After two final washes with PBS, cells were fixed in 2% paraformaldehyde for 30 min and analyzed.

Data set [4] has as its system CD4. To be noted: induction of apoptosis by H2O2; data not shown.
Data set [5] has as its system CD4+ T cells. Nature of the data set: Cell toxicity / viability of CD4+ T cells. It counts as cell-based, human. To be noted: mitogen-stimulated CD4+ T cells; data not shown.

These results are taken from patent US9320773B2, “Compounds and therapeutic applications related to inhibition of dendritic cell immunoreceptor (DCIR) activity and signaling events” (priority 2010, dated 2016).

On to `OO` [H2O2, Hydrogen peroxide], for which the virus production result in data set [1] is on record as “statistically significant increase”. Besides, the “virus binding and entry, p24” value in data set [1] (CD4+ T cells exposed to H2O2 (30 μM, 16 h), 3.8±0.8 without H2O2) is 12.5±1.8 ng/ml of p24. Further, the “surface expression of DC-SIGN” value in data set [2] is given as “not modulated”. The DCIR expression result in data set [3] (CD4+ T cells treated with inducer, H2O2 20 to 60 μM, result in words) was “dose-dependent increased”. The “DCIR expression in activated CD4+ T cells” value in data set [3] (H2O2-treated cells (30 μM, 16 h), n=3) is on record as 21.4±3.4%. Moreover, the “apoptotic cells also positive for DCIR” value in data set [3] (H2O2 treatment, FITC-VAD-FMK and anti-DCIR double staining, n=3) worked out at 12.2±3.2%. The “surface expression of CD4” value in data set [4] is “not modulated”. Also, the “doses at which cell viability was reduced” value in data set [5] is no less than 45 µM.
